Results: patent US20210263120A1, “METHOD OF PERSONALIZED TREATMENT FOR CARDIOMYOPATHY AND HEART FAILURE AND ASSOCIATED DISEASES BY MEASURING EDEMA AND CACHEXIA/SARCOPENIA” (priority 2018, published 2021)

Assays:
[1] = test system: female mice with dilated cardiomyopathy (DCM); assay: Kaplan-Meier survival of female mice with DCM; assay type: in vivo, mouse
Text: (§1) Mice: Dilated cardiomyopathy (DCM) is a major cause of HF, which is associated with pathological dilation of the heart ventricles and declines in heart contractile or systolic function. A well-established, translational mouse model of DCM with reduced ejection fraction (rEF) fulfills the criteria of the American Heart Association Scientific Statement for Animal Models of Heart Failure was utilized in the examples below. The mice used for this study were randomly assigned female littermates with or without (DCM on a C57BL/6 background. DCM mice express a transgene dominant-negative CREB transcription factor specific to cardiomyocytes and consistently develop the progressive stages (A-D) of HF similar to those described for humans. In female mice with DCM renal function remains within a normal range up to the terminal HF stage, as measured by plasma BUN and creatinine. DCM+vehicle (n=28) and DCM+DRI (n=29) were compared to each other. A group of congenic WT mice (n=20) was used for reference. In sub-groups of 90-day old mice (n=8/group), terminal blood was collected via cardiocentesis with ethylenediaminetetraacetic acid (EDTA)-aprotinin syringes to prevent proteolysis of targeted proteins and dissected organs were weighed. The blood samples were centrifuged at 3000 rpm for 20 min at 4° C. Plasma samples were aliquoted and stored at −80° C. until analysis. All analysis and health/death reports were recorded by investigators and animal facility technicians who were blinded to the mouse genotype.
(§2) Aliskiren water was provided ad libitum throughout life.
Statistical Analysis: Statistical analyses were performed with GraphPad Prism 7.04 software (GraphPad Software, La Jolla, Calif., USA) using Student's t-test, one-way ANOVA, or two-way ANOVA with Tukey's multiple comparisons test (unless otherwise indicated) and Pearson's correlation. Survival was analyzed using Kaplan-Meier curves with the Mantel-Cox test. Differences were considered significant if p≤0.05. Data are represented as mean±SE.

[2] = 100 mg/kg/day orally via drinking water, throughout the treatment period
Experimental: Dose calculations were based on an average consumption of 5 mL of water/day/mouse. […] The oral dose was chosen to closely mimic the human route of delivery, while not altering the blood pressure, associated with elevated plasma Ang II-aldosterone levels, given the low bioavailability of the drug in rodents. […] The administration was started at 50 days of age to coincide with the previously identified timeline of increased renin activity and development of stage B HF in female DCM mice]. […] All untreated mice (WT and DCM+vehicle) received ad lib 3 ppm hyperchlorinated facility water via an automated watering system (Edstrom, Waterford, Wis., USA).

[3] = test system: female mice with dilated cardiomyopathy (DCM); assay: Morphometric changes (heart and lung weight to body weight) at 90 days; assay type: in vivo, mouse; details: 90 days of age
Text: as §1, with “The blood samples were centrifuged at 3000 rpm for 20 min at 4° C. Plasma samples were aliquoted and stored at −80° C. until analysis.” left out, “genotype. […]” for “genotype.”

mouse renin = molecular target: T1, mouse renin (Mus musculus, UniProt P06281); assay: Plasma renin activity assay (FRET) in plasma of treated DCM mice; assay type: in vivo; details: DCM mice at 90 days, vs. untreated DCM control
T1 construct: Renin enzymatic activity from EDTA-aprotinin supplemented mouse plasma samples; from tissue
T1 sequence (P06281 72-402): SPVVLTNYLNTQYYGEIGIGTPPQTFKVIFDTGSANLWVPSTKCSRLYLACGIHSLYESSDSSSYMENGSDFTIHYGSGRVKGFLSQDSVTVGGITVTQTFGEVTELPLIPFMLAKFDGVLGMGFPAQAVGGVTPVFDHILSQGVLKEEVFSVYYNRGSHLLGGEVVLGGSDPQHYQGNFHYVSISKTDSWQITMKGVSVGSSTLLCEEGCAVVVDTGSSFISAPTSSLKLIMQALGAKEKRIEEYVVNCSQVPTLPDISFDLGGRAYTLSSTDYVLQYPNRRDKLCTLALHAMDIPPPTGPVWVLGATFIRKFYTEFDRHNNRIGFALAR
Experimental: Plasma samples were aliquoted and stored at −80° C. until analysis.

[4] = test system: female mice with dilated cardiomyopathy (DCM); assay: Echocardiography at 90 days in DCM mice; assay type: in vivo, mouse; details: 90 days of age
plasma aldosterone = assay: Enzyme immunoassay of plasma aldosterone in treated DCM mice; assay type: in vivo, mouse; details: DCM mice at 90 days, vs. untreated DCM control
Text: as §1, with “The blood samples were centrifuged at 3000 rpm for 20 min at 4° C. Plasma samples were aliquoted and stored at −80° C. until analysis.” left out, “genotype. […]” for “genotype.”

[5] = humans; cited from earlier work
[6] = test system: female mice with dilated cardiomyopathy (DCM); assay: Body composition by quantitative magnetic resonance (QMR, EchoMRI); assay type: in vivo, mouse
Text: as §1, §2
Body Composition: Body composition was objectively quantified by a single-blinded and experienced operator. Bodyweight, free water (systemic extracellular water, ECW), total water, body fat, and lean mass were recorded longitudinally. Mice were measured every tenth day between 50-100 days using quantitative magnetic resonance (QMR) technology with an EchoMRI™ 4-in-1 Analyzer (Echo Medical Systems, Houston, Tex., USA). The machine was calibrated daily per standard operating procedure using the provided canola oil (54.3 g) phantom. Briefly, mice were weighed (Scout Pro SP401, Ohaus Corporation, Pine Brook, N.J., USA) and loaded into a tube restrainer specific to the system. Mice were fully conscious and minimally restrained throughout each 60-90 s recording and were returned to their home enclosure following measurement.

With `COCCCOc1cc(C[C@@H](C[C@H](N)[C@@H](O)C[C@H](C(=O)NCC(C)(C)C(N)=O)C(C)C)C(C)C)ccc1OC` [aliskiren, aliskiren hemifumarate] the “survival gain expressed as human years” value ([1]; assuming an 80-year lifespan) was 5.6 human years, the median survival ([1]; female DCM mice, 100 mg/kg/day from 50 days of age, control 103 days) was 110 days and the “increase in survival vs. control DCM mice” value ([1]; female DCM mice, median survival +DRI vs. control) was 7%. For the same molecule, the “side effects or abnormal clinical observations” value [2] was “no side effects or abnormal clinical observations”, the “reduction of the gross increase in cardiac weight of control (DCM+vehicle) mice” value [3] was 20.4% and the plasma renin activity (mouse renin) was “significantly reduced elevated plasma renin activity to normal levels”. The “absolute increase in EF vs. DCM+vehicle” value [4] was 5%, the heart rate ([4]; anesthetized, control 419±10) was 469±14 bpm and the “cardiac output (CO; mL/min)” value ([4]; vs. DCM control) was “improved”. For the same molecule, the “ejection fraction (EF %)” value ([4]; vs. DCM control) was “improved”, the “fractional shortening (FS %)” value ([4]; vs. DCM control) was “improved” and the plasma aldosterone levels (plasma aldosterone) was “not modulated by treatment”. The bioavailability [5] was “low”, the “systemic extracellular water (ECW)” value ([6]; 100 days of age, QMR) was “significantly higher in DCM+vehicle vs. DCM+DRI mice” and the “combined fat and lean mass (wasting/cachexia)” value ([6]; 100 days, QMR) was “combined losses of fat and lean mass in DCM control mice by 100 days relative to WT (p<0.0001) and DCM+DRI mice”. The lean body mass ([6]; 100 days, QMR) was “significant decline in lean body mass in DCM control mice at 100 days, consistent with sarcopenia, by comparison to DCM+DRI and WT mice”, the “development of Stage C HF / ECW accumulation (edema)” value ([6]; DCM+DRI vs. DCM+vehicle) was “delayed development of Stage C HF” and the body weights ([6]; at 90 days) was “not significantly different between groups”. The body weights ([6]; at 100 days) was “weights appeared to decline in DCM+vehicle controls compared to WT and DCM+DRI mice” and the body fat ([6]; through 100 days, QMR) was “maintenance of fat levels similar to WT through 100 days”.
